From PubChem BioAssay AID588609 (Sanford-Burnham Center for Chemical Genomics, 2011)
Activity calls are given as the source filed them.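 How the source made its calls: active means compounds whose averaged half-maximal activating concentration falls below 100 micromolar; inactive means the rest.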

These molecules were tested against intestinal alkaline phosphatase (Alpi), mouse (assay: murine Alpi activation by analogs – biochemical, luminescence, set 2, SAR follow-up (AID 588609)). Conditions: purified muIAP, CDP-Star luminescence, 30 min.
An EC50 of 19.5 µM was found for `CCN(CC)S(=O)(=O)c1ccc(NC(=S)NCC(c2ccccc2)c2ccccc2)cc1` in this work. In the case of `CN(C)CC(C)(C)CNC(=S)Nc1cccc(S(=O)(=O)N(C)C)c1`, the EC50 is reported as > 100 µM (inactive). An EC50 of 5.37 µM was found for `O=S(=O)(c1ccc(NC(=S)NCC(c2ccccc2)c2ccccc2)cc1)N1CCCCC1` in this work. `CCN(CC)CCCNC(=S)Nc1cccc(S(=O)(=O)N(C)C)c1` was tested, and the EC50 was > 100 µM (inactive). `CN(C)S(=O)(=O)c1cccc(NC(=S)NCCC(=O)N2CCCC2)c1` was tested, and the EC50 was > 100 µM (inactive). For `CN(C)S(=O)(=O)c1cccc(NC(=S)NCCCN2CCCC2=O)c1`, the EC50 was > 100 µM (inactive). For `CCN(CC)c1ccc(C(=O)NC(=S)Nc2cc(S(=O)(=O)N3CCOCC3)ccc2-n2cncn2)cc1`, the EC50 was > 100 µM (inactive). An EC50 of 47.7 µM was found for `Cc1ccccc1CNC(=S)Nc1ccc(S(=O)(=O)N(C)C)cc1` in this work. An EC50 of 25.9 µM was found for `Cc1ccc(CNC(=S)Nc2cccc(S(=O)(=O)N(C)C)c2)cc1` in this work. An EC50 of 12.2 µM was found for `CN(C)S(=O)(=O)c1cccc(NC(=S)NCc2ccc(Cl)cc2)c1` in this work. An EC50 of 20.2 µM was found for `CN(C)S(=O)(=O)c1cccc(NC(=S)NCCc2cccc(F)c2)c1` in this work. An EC50 of 28.5 µM was found for `O=S(=O)(c1ccc(NC(=S)NCc2cccc(F)c2)cc1)N1CCCCC1` in this work. An EC50 of 53.7 µM was found for `COc1cccc(CCNC(=S)Nc2cccc(S(=O)(=O)N(C)C)c2)c1` in this work. An EC50 of 45.1 µM was found for `COc1cccc(CNC(=S)Nc2ccc(S(=O)(=O)N(C)C)cc2)c1` in this work. An EC50 of 43.7 µM was found for `COc1ccc(CNC(=S)Nc2ccc(S(=O)(=O)N3CCCCC3)cc2)cc1OC` in this work. For `O=C(NC(=S)Nc1cc(S(=O)(=O)N2CCOCC2)ccc1N1CCOCC1)c1ccco1`, the EC50 was > 100 µM (inactive). `CN(C)S(=O)(=O)c1cccc(NC(=S)NCCc2ccc(F)cc2)c1` was tested, and the EC50 was > 100 µM (inactive). An EC50 of 9.09 µM was found for `O=S(=O)(c1ccc(NC(=S)NCC(c2ccccc2)c2ccccc2)cc1)N1CCCC1` in this work. An EC50 of 44.7 µM was found for `CC(CCc1ccccc1)NC(=S)Nc1cccc(S(=O)(=O)N(C)C)c1` (stereo not given) in this work. An EC50 of 12.9 µM was found for `CC1CCN(S(=O)(=O)c2ccc(NC(=S)NCCC(c3ccccc3)c3ccccc3)cc2)CC1` in this work. For `CC1CC(NC(=S)Nc2cccc(S(=O)(=O)N(C)C)c2)CC(C)N1` (stereo not given), the EC50 was > 100 µM (inactive). An EC50 of 15.3 µM was found for `CN(C)S(=O)(=O)c1cccc(NC(=S)NCC(c2ccccc2)c2ccccc2)c1` in this work. An EC50 of 4.38 µM was found for `O=S(=O)(c1ccc(NC(=S)NC(c2ccccc2)c2ccccc2)cc1)N1CCCCC1` in this work. An EC50 of 67.1 µM was found for `COc1ccccc1CNC(=S)Nc1ccc(S(=O)(=O)N(C)C)cc1` in this work. For `CN(C)S(=O)(=O)c1ccc(NC(=S)NCCc2cccc(O)c2)cc1`, the EC50 was > 100 µM (inactive). An EC50 of 60.6 µM was found for `COc1ccc(CCNC(=S)Nc2ccc(S(=O)(=O)N3CCCCC3)cc2)cc1` in this work. An EC50 of 6.81 µM was found for `CC1CCN(S(=O)(=O)c2ccc(NC(=S)NCC(c3ccccc3)c3ccccc3)cc2)CC1` in this work. An EC50 of 32.1 µM was found for `CN(C)S(=O)(=O)c1cccc(NC(=S)NC(C)(C)CC(C)(C)C)c1` in this work. An EC50 of 3.23 µM was found for `CN(C)S(=O)(=O)c1ccc(NC(=S)NC(c2ccccc2)c2ccccc2)cc1` in this work. An EC50 of 48.5 µM was found for `CN(C)S(=O)(=O)c1ccc(NC(=S)NCCc2cccc(Br)c2)cc1` in this work. With `O=c1c2ccccc2[nH]c(=S)n1-c1cccc(S(=O)(=O)N2CCCC2)c1` the EC50 was > 100 µM (inactive). An EC50 of 51.5 µM was found for `Cc1ccc(S(=O)(=O)N(C)C)cc1NC(=S)NC(C)CCCC(C)C` (stereo not given) in this work. An EC50 of 7.44 µM was found for `CN(C)S(=O)(=O)c1cccc(NC(=S)NCCC(c2ccccc2)c2ccccc2)c1` in this work. An EC50 of 7.3 µM was found for `CC1CCN(S(=O)(=O)c2ccc(NC(=S)NC(c3ccccc3)c3ccccc3)cc2)CC1` in this work. `CN(CCc1ccccn1)C(=S)Nc1cccc(S(=O)(=O)N(C)C)c1` was tested, and the EC50 was > 100 µM (inactive). An EC50 of 56.9 µM was found for `CN(C)S(=O)(=O)c1cccc(NC(=S)NCCc2cccc(Br)c2)c1` in this work. An EC50 of 60.5 µM was found for `COc1ccc(CCNC(=S)Nc2ccc(S(=O)(=O)N3CCCCC3)cc2)cc1OC` in this work. An EC50 of 20.1 µM was found for `CN(C)S(=O)(=O)c1ccc(NC(=S)NCCC(c2ccccc2)c2ccccc2)cc1` in this work. For `CN(C)CCCNC(=S)Nc1cccc(S(=O)(=O)N(C)C)c1`, the EC50 was > 100 µM (inactive). An EC50 of 13.4 µM was found for `CN(C)S(=O)(=O)c1ccc(NC(=S)NCC(c2ccccc2)c2ccccc2)cc1` in this work. `O=C(NC(=S)Nc1cc(S(=O)(=O)N2CCOCC2)ccc1O)c1ccco1` was tested, and the EC50 was > 100 µM (inactive). An EC50 of 44.5 µM was found for `O=S(=O)(c1ccc(NC(=S)NCCC(c2ccccc2)c2ccccc2)cc1)N1CCCCC1` in this work. An EC50 of 26 µM was found for `CN(C)S(=O)(=O)c1cccc(NC(=S)NC(c2ccccc2)c2ccccc2)c1` in this work. For `Cc1ccc(S(=O)(=O)N(C)C)cc1NC(=S)NCCCn1ccnc1`, the EC50 was > 100 µM (inactive). With `CN(C)S(=O)(=O)c1ccc(NC(=S)NCCN2CCCC2)cc1` the EC50 was > 100 µM (inactive). An EC50 of 36.1 µM was found for `O=S(=O)(c1ccc(NC(=S)NCc2cccc(Cl)c2)cc1)N1CCCCC1` in this work. An EC50 of 51.6 µM was found for `CN(C)S(=O)(=O)c1cccc(NC(=S)NCCc2ccccc2)c1` in this work. An EC50 of 42.7 µM was found for `Cc1ccc(S(=O)(=O)N(C)C)cc1NC(=S)NC(C)CCC(C)C` (stereo not given) in this work. `Cc1ccc(S(=O)(=O)N(C)C)cc1NC(=S)NC1CCN(Cc2ccccc2)CC1` was tested, and the EC50 was > 100 µM (inactive). In the case of `Cc1ccc(C)c(NC(=S)Nc2ccc(S(=O)(=O)N3CCCCC3)cc2)c1`, the EC50 is reported as > 100 µM (inactive). An EC50 of 76.9 µM was found for `CCN(CC)S(=O)(=O)c1ccc(NC(=S)NCCC(c2ccccc2)c2ccccc2)cc1` in this work. In the case of `O=C(CCc1ccccc1)NC(=S)Nc1cccc(S(=O)(=O)N2CCCC2)c1`, the EC50 is reported as > 100 µM (inactive). An EC50 of 73.2 µM was found for `Cc1ccc(CNC(=S)Nc2ccc(S(=O)(=O)N(C)C)cc2)cc1` in this work. An EC50 of 87.5 µM was found for `CC(CNC(=S)Nc1cccc(S(=O)(=O)N(C)C)c1)N1CCN(c2ccccc2)CC1` (stereo not given) in this work. An EC50 of 59.3 µM was found for `O=S(=O)(c1ccc(NC(=S)NCCC(c2ccccc2)c2ccccc2)cc1)N1CCCC1` in this work. An EC50 of 86 µM was found for `CN(C)S(=O)(=O)c1cccc(NC(=S)NCCc2ccc(Br)cc2)c1` in this work. For `CN(C)S(=O)(=O)c1cccc(NC(=S)NCCCn2ccnc2)c1`, the EC50 was > 100 µM (inactive). For `CN(C)S(=O)(=O)c1cccc(NC(=S)NCCN2CCCC2)c1`, the EC50 was > 100 µM (inactive). `CN(C)S(=O)(=O)c1cccc(NC(=S)NCCc2cccc(O)c2)c1` was tested, and the EC50 was > 100 µM (inactive). For `Cc1ccc(S(=O)(=O)N(C)C)cc1NC(=S)NC(=O)C12CC3CC(CC(C3)C1)C2`, the EC50 was > 100 µM (inactive). `CN(C)S(=O)(=O)c1ccc(NC(=S)NCCc2ccccc2)cc1` was tested, and the EC50 was > 100 µM (inactive). An EC50 of 12.7 µM was found for `O=S(=O)(c1ccc(NC(=S)NC(c2ccccc2)c2ccccc2)cc1)N1CCCC1` in this work. An EC50 of 12.3 µM was found for `CCCCCCC(C)NC(=S)Nc1cc(S(=O)(=O)N(C)C)ccc1C` (stereo not given) in this work. An EC50 of 43.9 µM was found for `CCN(CC)S(=O)(=O)c1ccc(NC(=S)NC(c2ccccc2)c2ccccc2)cc1` in this work. For `CN(CCc1ccccc1)C(=S)Nc1cccc(S(=O)(=O)N(C)C)c1`, the EC50 was > 100 µM (inactive).
